The source of these data is article PMC5967881 (Journal of medicinal chemistry, 2017).

pEC50: −log10 of the molar value. Values joined by “and” are separate entries in the source; they are usually repeats but may differ in a detail not shown here. Equal values may be shown once. Read-outs that look alike come from different tables or passages of the source. Some results are limits rather than exact numbers.

Assay [1] deals with A/Denmark/528/2009 (H1N1). Kind of assay: microbe, parasite or virus in culture. The assay is classed as cell-based. The conditions noted are these: Influenza A virus, H1N1, read-out: EC50 against A/Denmark/528/2009 (H1N1).
For a further assay, the target named is AM2-S31N proton channel (Influenza A virus, UniProt P0DOF5, S31N). Format: biochemical. To be noted: pH 5.5, 100 µM.
Assay [2] concerns A/Washington/29/2009 (H1N1). As to the kind of experiment: microbe, parasite or virus in culture. The assay is classed as cell-based. The conditions noted are these: Influenza A virus, H1N1, read-out: EC50 against A/Washington/29/2009 (H1N1).

As to `Clc1ccc(-c2cc(CNC34CC5CC(CC(C5)C3)C4)no2)s1` [9q, N-((5-(5-chlorothiophen-2-yl)isoxazol-3-yl)methyl)adamantan-1-amine], the pEC50 in assay [1] and in assay [2] was 6.70 to 7.00 each time. For the same molecule, the “Electrophysiological TEVC assay (% S31N channel inhibition)” value at AM2-S31N proton channel (100 µM) is above 70%.

On to `COc1sccc1-c1cc(CNC23CC4CC(CC(C4)C2)C3)no1` [9t, N-((5-(2-methoxythiophen-3-yl)isoxazol-3-yl)methyl)adamantan-1-amine], for which the “Electrophysiological TEVC assay (% S31N channel inhibition)” value on AM2-S31N proton channel (100 µM) is on record as above 70%. On the same count and under the same terms, the figure for `CSc1ccccc1-c1cc(CNC23CC4CC(CC(O)(C4)C2)C3)no1` [9f, 3-[({5-[2-(methylsulfanyl)phenyl]-1,2-oxazol-3-yl}methyl)amino]adamantan-1-ol] is > 70% and > 90%; for “3-({[5-(3-methoxythiophen-2-yl)-1,2-oxazol-3-yl]methyl}amino)adamantan-1-ol [9s]” it is 83.8 ± 3.3%; for `OC12CC3CC(C1)CC(NCc1cc(-c4ccccc4Cl)on1)(C3)C2` [9d, 3-({[5-(2-chlorophenyl)-1,2-oxazol-3-yl]methyl}amino)adamantan-1-ol] it is above 70%.

Turning to `Clc1cc(-c2cc(CNC34CC5CC(CC(C5)C3)C4)no2)c(Cl)s1` [9u, N-((5-(2,5-dichlorothiophen-3-yl)isoxazol-3-yl)methyl)adamantan-1-amine], at AM2-S31N proton channel (100 µM), the “Electrophysiological TEVC assay (% S31N channel inhibition)” value is given as above 70%. On the same count and under the same terms, the figure for `Oc1ccccc1-c1cc(CNC23CC4CC(CC(C4)C2)C3)no1` [9h, 2-(3-(((adamantan-1-yl)amino)methyl)isoxazol-5-yl)phenol] is above 70%; for `c1ccc(-c2cc(CNC34CC5CC(CC(C5)C3)C4)no2)cc1` [9a, N-[(5-phenyl-1,2-oxazol-3-yl)methyl]adamantan-1-amine] it is 91.2 ± 1.5%; for `Clc1cc(-c2cc(CNC34CC5CC(CC(C5)C3)C4)no2)cs1` [9r, N-((5-(5-chlorothiophen-3-yl)isoxazol-3-yl)methyl)adamantan-1-amine] it is above 70%. As for “N-((5-(2-(methylsulfonyl)phenyl)isoxazol-3-yl)methyl)adamantan-1-amine [9m]”, the “Electrophysiological TEVC assay (% S31N channel inhibition)” value on AM2-S31N proton channel is recorded as 47.4 ± 0.5%. In the case of `OC12CC3CC(C1)CC(NCc1cc(-c4cc(Cl)sc4Cl)on1)(C3)C2` [9v, 3-({[5-(2,5-dichlorothiophen-3-yl)-1,2-oxazol-3-yl]methyl}amino)adamantan-1-ol], the “Electrophysiological TEVC assay (% S31N channel inhibition)” value on AM2-S31N proton channel (100 µM) is recorded as above 70%.
